Laboratory results published in US4451475A, “Cyclic sulphenamide compounds, their production and their medicinal use” (Bayer Aktiengesellschaft, priority 1981, dated 1984).

What was measured:
[1] = test system: lipoxygenase; cyclooxygenase; settings: in words; one statement for all four named inhibitors; cited from earlier work
[2] = target: T1, platelet lipoxygenase (Homo sapiens, UniProt P18054); assay: Inhibition of the platelet lipoxygenase (synthesis of HETE), metabolism of radioactively labelled arachidonic acid by washed human platelets; assay type: cell-based; settings: in vitro
T1 construct: metabolism of radioactively labelled arachidonic acid by washed human platelets; endogenous in cells; host or cells: washed human platelets
T1 sequence (P18054 1-663): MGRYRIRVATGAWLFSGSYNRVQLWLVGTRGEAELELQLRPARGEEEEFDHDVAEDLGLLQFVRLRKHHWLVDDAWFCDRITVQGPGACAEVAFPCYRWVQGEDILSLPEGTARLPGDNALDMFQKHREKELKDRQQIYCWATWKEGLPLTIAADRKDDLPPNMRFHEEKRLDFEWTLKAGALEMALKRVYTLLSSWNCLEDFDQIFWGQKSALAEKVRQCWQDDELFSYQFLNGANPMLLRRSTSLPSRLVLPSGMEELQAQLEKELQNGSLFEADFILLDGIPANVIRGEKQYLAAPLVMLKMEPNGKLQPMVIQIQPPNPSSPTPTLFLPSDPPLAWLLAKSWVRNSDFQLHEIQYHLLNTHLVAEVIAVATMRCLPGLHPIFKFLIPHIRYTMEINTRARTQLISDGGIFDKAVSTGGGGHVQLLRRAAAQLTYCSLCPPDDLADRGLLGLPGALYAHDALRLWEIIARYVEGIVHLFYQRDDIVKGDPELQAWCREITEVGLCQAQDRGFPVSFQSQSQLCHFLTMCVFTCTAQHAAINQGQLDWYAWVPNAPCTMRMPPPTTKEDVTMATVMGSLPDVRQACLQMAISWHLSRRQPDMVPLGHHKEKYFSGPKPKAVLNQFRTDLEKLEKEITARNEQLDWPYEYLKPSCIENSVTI
Method: Use is made in this test method of the metabolism of radioactively labelled arachidonic acid by washed human platelets. In this in vitro test, the radioactively labelled metabolites are extracted from the reaction mixture and separated by thin layer chromatography. The autoradiogram is evaluated on a thin layer scanner. Under these test conditions, the labelled metabolites are separated from the unreacted arachidonic acid and are subsequently quantitatively evaluated. The distribution of the radioactivity in the cyclooxygenase products, formed during metabolism, thromboxane B2 (TXB2) and 12-hydroxy-5,8,10-heptadecatrienoic acid (HHT) and the lipoxygenase product 12-hydroxy-5,8,11,14-eicosatetraenoic acid (HETE), as influenced by the inhibitors, gives a measure of the inhibition of the enzymes.
The inhibition of lipoxygenase by the sulphenamides according to the invention can be measured by the inhibition of the synthesis of HETE.

[3] = test system: leucocytes; assay: Inhibition of the migration of leucocytes after local administration by a sponge soaked in active compound under the dorsal skin of rats; assay type: in vivo; settings: 10 mg/rat
Text: The sulphenamides according to the present invention are also active in vivo. […] The following Table 2 summarises the activities of some illustrative sulphenamides after local administration, by introduction of a piece of sponge soaked in the active compound under the dorsal skin of rats.

| SMILES | Selectivity/potency of known inhibitors of lipoxygenase [1] | Minimum effective inhibitory concentration (at least 50% inhibition), inhibition of the platelet lipoxygenase (synthesis of HETE) [2] | Inhibition of the migration of leucocytes (control = 0%) [3] [%] |
| --- | --- | --- | --- |
| CCCCCC=CCC=CCC=CCC=CCCCC(=O)O [5,8,11,14-eicosatetraenoic acid] | either simultaneously inhibitors of cyclooxygenase or only active at very high concentrations | – | – |
| O=C1OCCN1Sc1ccccc1 [Example 2, 3-phenylthio-oxazolidin-2-one] | – | 10^-6 g/ml | 55 |
| O=C1OCCN1Sc1ccc(Cl)cc1 [Example 4, 3-(4-chlorophenylthio)-oxazolidin-2-one] | – | 10^-7 g/ml | 80 |
| CC(C)(C)c1ccc(SN2CCOC2=O)cc1 [Example 5, 3-(4-tert.-butylphenylthio)-oxazolidin-2-one] | – | – | 72 |
| O=c1scc(-c2ccccc2)n1Sc1ccc(Cl)cc1 [Example 10, 3-(4-chlorophenylthio)-4-phenylthiazolin-2-one] | – | – | 53 |
| CC(Cc1ccc(O)c(O)c1)C(C)Cc1ccc(O)c(O)c1 (stereo not drawn) [nordihydroguaiaretic acid] | either simultaneously inhibitors of cyclooxygenase or only active at very high concentrations | – | – |
| O=C1CCN(c2ccccc2)N1 [phenidone] | either simultaneously inhibitors of cyclooxygenase or only active at very high concentrations | – | – |
